According to US20070238765A1, “Heterocyclic GABAA subtype selective receptor modulators” (Roche Palo Alto LLC, priority 2006, published 2007):

Key:
GABAA α2β3γ2 = target: T1, GABAA α2β3γ2 (Homo sapiens, UniProt P18507+P28472+P47869); assay: 35S-TBPS binding assay, HEK293 membranes with GABAA α2β3γ2 construct; conditions: 35S-TBPS 5 nM, GABA 1 μM, 2 hours at room temperature, read-out: α2β3γ2 (35S-TBPS binding, pIC50) (converted)
T1 construct: expressed in transfected cells; host or cells: HEK293
T1 sequence (P47869 29-451): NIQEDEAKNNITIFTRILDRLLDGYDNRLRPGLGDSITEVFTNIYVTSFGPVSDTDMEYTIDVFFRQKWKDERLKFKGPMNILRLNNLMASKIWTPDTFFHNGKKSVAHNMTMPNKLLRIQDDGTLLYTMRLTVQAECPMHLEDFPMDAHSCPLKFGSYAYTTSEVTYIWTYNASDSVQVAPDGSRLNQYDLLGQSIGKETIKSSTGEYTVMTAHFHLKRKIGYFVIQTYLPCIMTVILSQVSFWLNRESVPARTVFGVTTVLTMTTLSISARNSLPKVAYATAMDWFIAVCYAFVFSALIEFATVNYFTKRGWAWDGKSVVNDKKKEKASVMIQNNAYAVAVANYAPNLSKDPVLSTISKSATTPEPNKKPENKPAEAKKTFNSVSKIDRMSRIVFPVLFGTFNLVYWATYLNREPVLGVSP
T1 sequence (P28472 26-473): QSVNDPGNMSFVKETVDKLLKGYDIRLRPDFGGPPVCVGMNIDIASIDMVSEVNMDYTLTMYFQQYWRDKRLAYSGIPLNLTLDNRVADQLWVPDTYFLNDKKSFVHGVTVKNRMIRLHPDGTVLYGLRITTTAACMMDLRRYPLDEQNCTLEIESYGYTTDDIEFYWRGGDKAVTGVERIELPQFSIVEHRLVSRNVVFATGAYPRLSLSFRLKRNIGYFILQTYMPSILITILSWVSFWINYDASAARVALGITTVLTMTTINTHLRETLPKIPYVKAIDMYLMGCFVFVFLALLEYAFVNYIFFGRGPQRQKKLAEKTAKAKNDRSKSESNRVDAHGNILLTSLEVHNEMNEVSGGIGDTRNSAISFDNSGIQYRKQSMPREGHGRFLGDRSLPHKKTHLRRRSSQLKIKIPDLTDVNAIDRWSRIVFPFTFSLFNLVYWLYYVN
T1 sequence (P18507 40-475): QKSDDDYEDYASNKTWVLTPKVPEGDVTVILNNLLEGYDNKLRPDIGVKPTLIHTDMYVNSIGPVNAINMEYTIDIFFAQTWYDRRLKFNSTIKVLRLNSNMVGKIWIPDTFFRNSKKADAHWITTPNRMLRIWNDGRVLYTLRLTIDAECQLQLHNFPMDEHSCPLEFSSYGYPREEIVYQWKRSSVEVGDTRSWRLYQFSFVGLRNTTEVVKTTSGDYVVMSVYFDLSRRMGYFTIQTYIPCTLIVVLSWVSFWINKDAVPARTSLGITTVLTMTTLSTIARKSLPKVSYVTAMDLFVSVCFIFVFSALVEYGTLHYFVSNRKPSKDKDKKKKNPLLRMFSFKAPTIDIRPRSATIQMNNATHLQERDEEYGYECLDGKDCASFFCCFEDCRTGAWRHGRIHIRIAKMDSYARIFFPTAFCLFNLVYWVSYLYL
Method: (§1) The binding assay is based on the assay reported by K. Gee et al., Eur. J. Pharmacol. 1987, 136, 419-423.
(§2) Homogenate preparation: Membrane preparations of HEK293 cells containing either GABAA α1β2γ2 or GABAA α2β3γ2 constructs were performed according to a modified procedure previously described by Gee et al. (supra). Whole HEK 293 cells in D-PBS (calcium/magnesium free) buffer adjusted to pH 7.4 were centrifuged at 7,280×g for 20 m. After discarding the supernatant, the pellet was resuspended in the buffer and centrifuged at 1,820×g for 10 m. Afterwards, the supernatant was discarded and the pellet resuspended in ice-cold preparation buffer (50 mM Tris HCl pH 7.4, 4° C. and 150 mM KCl), homogenized for 30 sec using a Brinkmann Polytron PT3000 (setting 6) and centrifuged at 48,000×g for 30 m at 4° C. The centrifugation and homogenization procedure was repeated two more times for a total of 3 times before resuspending the membranes at a final protein concentration of 0.5 mg/mL. Aliquots (30 mL) of the final membrane preparation were then centrifuged at 48,000×g for 30 m, and the resulting pellets were stored at −80° C. until required.
(§3) 35S-TBPS binding assay. Membrane pellets containing either GABAA α1β2γ2 or GABAA α2β3γ2 constructs were thawed on ice, resuspended in 10 mL of 50 mM Tris HCl pH7.4, 4° C. and 150 mM KCl and centrifuged at 48,000×g, 30 m at 4° C. After discarding the supernatant, the pellet was resuspended in 30 mL incubation buffer (50 mM Tris HCl pH 7.4, 25° C. and 150 mM KCl) at approximately 0.5 mg/mL protein concentration. In 35S-TBPS competition studies, HEK293 membranes were incubated with 35S-TBPS (5 nM final) and GABA (1 μM) in the absence or presence of competitor at concentrations ranging from 0.01 nM to 10 μM in 125 μL incubation buffer for 2 hours at room temperature (˜22° C.). Non-specific binding was assayed with picrotoxin (100 μM final concentration). The binding reaction was terminated by vacuum filtration through GF/B filters previously soaked in 0.1% polyethylenimine followed by 3×1 mL washes with ice cold wash buffer (50 mM Tris HCl pH7.4, 4° C. and 150 mM KCl). Measurement of bound radioactivity was performed using a Packard Microplate 96 well topcount scintillation counter. Analysis of competition curves and estimation of pIC50 values of test compounds were performed using the software programs ActivityBase and/or Prism (version 3.0).

GABAA α1β2γ2 = target: T2, GABAA α1β2γ2 (Homo sapiens, UniProt P14867+P18507+P47870); assay: 35S-TBPS binding assay, HEK293 membranes with GABAA α1β2γ2 construct; conditions: 35S-TBPS 5 nM, GABA 1 μM, 2 hours at room temperature, read-out: α1β2γ2 (35S-TBPS binding, pIC50) (converted)
T2 construct: expressed in transfected cells; host or cells: HEK293
T2 sequence (P14867 28-456): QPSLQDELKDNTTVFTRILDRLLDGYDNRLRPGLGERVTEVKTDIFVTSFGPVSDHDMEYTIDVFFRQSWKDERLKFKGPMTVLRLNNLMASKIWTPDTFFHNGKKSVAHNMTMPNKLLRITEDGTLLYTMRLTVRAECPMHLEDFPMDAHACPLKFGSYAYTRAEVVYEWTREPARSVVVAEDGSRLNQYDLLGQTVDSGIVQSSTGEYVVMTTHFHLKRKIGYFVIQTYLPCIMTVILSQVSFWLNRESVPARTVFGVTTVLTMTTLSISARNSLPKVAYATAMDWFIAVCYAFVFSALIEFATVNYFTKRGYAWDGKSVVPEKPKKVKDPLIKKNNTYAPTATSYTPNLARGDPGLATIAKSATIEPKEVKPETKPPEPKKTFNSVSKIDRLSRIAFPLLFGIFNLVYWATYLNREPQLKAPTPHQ
T2 sequence (P47870 25-512 limits assumed): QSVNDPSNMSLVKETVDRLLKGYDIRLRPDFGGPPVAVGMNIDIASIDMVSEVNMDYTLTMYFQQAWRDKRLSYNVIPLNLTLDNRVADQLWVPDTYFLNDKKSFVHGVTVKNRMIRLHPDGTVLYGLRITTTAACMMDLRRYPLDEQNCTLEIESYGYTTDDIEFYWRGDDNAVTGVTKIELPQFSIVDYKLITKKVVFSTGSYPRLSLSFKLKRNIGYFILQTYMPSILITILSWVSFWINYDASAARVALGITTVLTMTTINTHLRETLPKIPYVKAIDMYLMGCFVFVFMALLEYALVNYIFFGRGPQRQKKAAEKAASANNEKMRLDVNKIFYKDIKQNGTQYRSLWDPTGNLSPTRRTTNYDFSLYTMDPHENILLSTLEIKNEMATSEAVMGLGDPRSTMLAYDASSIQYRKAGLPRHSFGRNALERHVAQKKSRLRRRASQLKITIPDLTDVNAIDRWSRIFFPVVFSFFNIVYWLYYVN
T2 sequence (P18507 40-475): as the sequence (P18507 40-475) above
Method: as §1, §2, §3

Row | SMILES | melting point | IC50 (GABAA α2β3γ2) | IC50 (GABAA α1β2γ2)
1 | Cn1nc2c(-c3ccc(Cl)cc3Cl)cccc2c1CN1CCOC1=O [I-8, 3-[7-(2,4-Dichloro-phenyl)-2-meth-yl-2H-indazol-3-yl-methyl]-oxazolidin-2-one] | 165.9 to 167.5 °C | 1.51 µM | 6.31 µM
2 | Cn1nc2c(-c3ccc(Cl)cc3Cl)cccc2c1Cc1nnn(CCO)n1 [I-11, 2-{5-[7-(2,4-Dichloro-phenyl)-2-methyl-2H-inda-zol-3-ylmethyl]-tetrazol-2-yl}-eth-anol] | 147.7 to 151.1 °C | 0.347 µM | 1.51 µM

The next lines start with the values.

Row | melting point | IC50 (GABAA α2β3γ2) | IC50 (GABAA α1β2γ2) | SMILES
3 | 92 to 115.5 °C | 0.309 µM | 9.55 µM | Cn1nc2c(-c3ccc(Cl)cc3Cl)cccc2c1CCc1ncn[nH]1 [I-34, 7-(2,4-Dichloro-phenyl)-2-meth-yl-3-[2-(2H-[1,2,4]tri-azol-3-yl)-ethyl]-2H-inda-zole]
4 | 212.8 to 214.5 °C | 4.68 µM | > 10 µM | Cn1nc2c(-c3ccc(Cl)cc3Cl)cccc2c1C1=NCCN1 [I-41, 7-(2,4-Dichloro-phenyl)-3-(4,5-di-hydro-1H-imidazol-2-yl)-2-meth-yl-2H-indazole]
5 | 60.5 to 65.1 °C | > 10 µM | > 10 µM | Cn1nc2c(-c3ccc(Cl)cc3Cl)cccc2c1CCC1=NCCN1 [I-38, 7-(2,4-Dichloro-phenyl)-3-[2-(4,5-di-hydro-1H-imidazol-2-yl)-eth-yl]-2-methyl-2H-inda-zole]
